# Measurements reported in US20110105436A1, “HETEROARYL COMPOUNDS, COMPOSITIONS, AND METHODS OF USE IN CANCER TREATMENT” (AUCKLAND UNISERVICES LIMITED, priority 2008, published 2011).
# Key:
# Type in all cases: cell-based
# LC3 = LC3 processing by Western blot and immunostaining; details: for effect of inhibitor on vacuole formation and LC3-II induced by STF-62247: co-treatment with 1.25 μM STF-62247, 20 hrs, VHL-deficient RCC cells; for toxicity, vacuole formation and LC3-lipidated form (autophagy) of analogs: 1.25 μM, 20 hours, FIG. 5A-B
# Description: (§1) Western blot analysis. After treatments, cells were lysed in urea buffer (9M urea, 75 mM Tris (pH 7.5), 150 mM b-mercaptoethanol), placed on ice for 10 minutes and sonicated briefly (15 seconds). Extracts were centrifugated at 8,000×g for 10 minutes to eliminate insoluble material. Lysates were quantitated using Bio-Rad protein Assay (Bio-Rad Laboratories) and 20-30 μg of proteins were separated on a 7.5% or 15% bis-acrylamide gels and then transferred onto PVDF membranes. Proteins were visualized using HIF-2α (Novus Biological), HIF-1α, pVHL and BiP (BD Biosciences), LC3 (MBL), Atg5, or α-tubulin antibodies.
# Immunofluorescence staining. Cells were seeded on glass coverslips and at subconfluence, STF-62247 was added at 1.25 μM for RCC4 and 3.75 μM for SN12C. After 20 hours, cells were fixed in 3.7% formaldehyde for 10 min at room temperature and washed in PBS. Then cells were permeabilized in 0.2% Triton X-100 for 5 min at room temperature and washed in PBS. The coverslips were incubated with primary antibody LC3 diluted 1:500 in PBS containing 0.2% BSA for 1 hour at room temperature. Cells were washed three times in PBS-BSA and the bound primary antibody was detected using a fluorescein-conjugated secondary antibody (ALEXA) diluted 1:500 in PBS-BSA and incubated for 1 hour. Coverslips were washed and mounted in mounting medium from Vector Laboratories according to the manufacturer's instructions. Cells were examined with a confocal microscope
# A. Phase contrast pictures of VHL-deficient RCC4 and SN12C-VHL shRNA cells and VHL-positive cells RCC4 and SN12C after 20 hrs of 1.25 μM STF-62247. B. Immunostaining for LC3 following STF-62247 treatment at 1.25 μM for 20 hrs with or without 2 mM of 3-MA in RCC4 with and without VHL cells. After treatment, cells were fixed, permeabilized and processed for the detection of punctuate staining by indirect immunofluorescence. C. Autophagic vacuoles stained with monodansylcadaverine (MDC). After STF-62247 treatment in the same conditions, MDC was added for the last 10 minutes. Cells were fixed, washed with PBS and observed directly under microscope. D. Western blot for LC3 in RCC4, RCC4/VHL, SN12C, and SN12C-VHL shRNA cells after STF-62247 treatment with or without 3-MA. Nutrient starvation (EBSS) is used as positive control. E. Western blot for LC3 in RCC4 and RCC4/VHL with different concentrations of STF-62247. Tubulin was used as loading control. F. Cell viability assay in VHL-deficient RCC4 and wild-type VHL cells treated with 1 mM of 3-MA, 1.25 μM of STF-62247 alone or in combination for 24 hrs. Viability is measured by trypan blue exclusion assay and is represented by the average of three different experiments in duplicate as the percent of treated on untreated cells. The error bars are represented as SEM.
# (§2) A. VHL-deficient RCC4 and wild-type VHL were incubated in presence of 10 μM LY294002, or 1 μg/mlBrefeldin A with 1.25 μM of STF-62247 for 20 hrs and the presence of vacuoles was examined under light microscopy. B,C. LC3 processing was evaluated by Western blot after the treatment with Brefeldin A or LY294002 in presence or absence of STF-62247 as described above. Tubulin was used as loading control. D. Cells were treated with 1.25 μM of STF-62247 with or without 2 mM of 3-MA, 1 μg/ml of Brefeldin A for 20 hrs. For the last 15 min, acidic components were stained with 1 μg/ml of acridine orange and visualized under fluorescence microscope. […] F. Quantification of the FACS analysis. The data are calculated as the average of three different experiments as relative units of treated over untreated cells. The error bars are represented as the standard error of the mean (SEM).
# B,C. LC3 processing was evaluated by Western blot after the treatment with U0126 or tunicamycin in presence or absence of STF-62247 as described above. Tubulin was used as loading control.
# BiP (Grp78) = assay: Western blot for BiP (ER stress); details: 2 μg/ml tunicamycin, FIG. 9C
# Description: as §1
# B,C. LC3 processing was evaluated by Western blot after the treatment with U0126 or tunicamycin in presence or absence of STF-62247 as described above. Tubulin was used as loading control. D. FACS analysis to measure the acidic vesicle organelles after staining with acridine orange in SN12C and SN12C-VHL shRNA following treatment with STF-62247 for 24 hours. E. AVO quantification from the FACS analysis in A. F. Autophagic vacuoles stained with MDC. After STF-62247 treatment with or without 3-MA, NH4Cl, MDC was added the last 10 minutes. Then, cells were fixed, washed with PBS and observed directly under microscope.
# RCC4 cells = assay: XTT assay in VHL-deficient RCC4 cells; details: Homo sapiens, 96 h; Table 1; XTT assay, VHL-deficient RCC4 cells, four days
# In short: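 RCC4 cells with and without VHL seeded at 5000/well, then exposed next day to serially diluted compound (DMSO vehicle) for four days. Viability read by XTT (0.3 mg/ml) with PMS, 1-2 h at 37° C, absorbance at 450 nm.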
# [1] = system: RCC4, RCC4/VHL, SN12C and SN12C-VHL shRNA cells; assay: Acidic vesicle organelles with acridine orange (FACS); details: for acridine orange staining / amount of AVOs: 1.25 μM, VHL-deficient versus wild-type VHL cells; for effect of inhibitor on autolysosomal acidification induced by STF-62247: 2 mM 3-MA or 1 μg/ml Brefeldin A with 1.25 μM STF-62247, 20 hrs
# Description: Quantification of Acidic Vesicle Organelles with Acridine Orange. In acridine orange-stained cells, the cytoplasm and nucleus are bright green and dim red, whereas acidic compartments are bright red. The intensity of the red fluorescence is proportional to the degree of acidity. Following 20 hours of treatment with STF-62247 or analogs, cells were stained with 1 μg/ml of acridine orange for 15 min. Cells were trypsinized and then analyzed by flow cytometry using FACScan cytometer and CellQuest software.
# as §2
# A. RCC4 and RCC4/VHL were treated with 1.25 μM of each 19 analogs for 20 hours and the presence of vacuoles was examined under light microscopy. B. Western blot for LC3 after treatment with each compound. Tubulin was used as loading control. Ratio is the relative from the IC50 in RCC4/VHL cells/IC50 in RCC4 cells. C. Acidic vesicle organelles (AVO) measured by FACS analysis in cells treated with 1.25 μM of STF-62247 or with compounds 21, 15, 25, 47, and 53 and stained with acridine orange.
# RCC4/VHL cells = assay: XTT assay, RCC4/VHL versus RCC4 cells (selectivity ratio); details: for Ratio: Table 1, selectivity ratio, IC50 in RCC4/VHL cells/IC50 in RCC4 cells
# In short: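 RCC4 cells with or without VHL (5000/well) exposed to serially diluted compounds for four days. Viability read as XTT metabolism (0.3 mg/ml XTT plus PMS, 1-2 h, 37 °C) at 450 nm. Ratio is IC50 in RCC4/VHL over IC50 in RCC4.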
# [2] = system: VHL-deficient RCC4 and wild-type VHL cells; assay: Cell viability by trypan blue exclusion; details: 1 mM 3-MA, 1.25 μM STF-62247, 24 hours, FIG. 2F
# Description: Cell Viability and XTT assays. For cell viability, 100,000 cells were plated in a 12-well plate. The following day, 1.25 μM STF-62247 was added in the presence or absence of 1 mM 3-MA for 24 hours at 37° C. Cells were trypsinized and counted by trypan blue exclusion. For XTT assays, 5000 RCC4 with and without VHL cells or 2,500 SN12C with and without VHL shRNA cells were plated in 96-well plates. The following day, vehicle (DMSO), STF-62247 or each of 19 analogs were added to media by serial dilution. Four days later, the media was aspirated and XTT solution containing 0.3 mg/ml of XTT (Sigma Chemical Co) in Phenol Red-free media, 20% FCS and 2.65 mg/ml N-methyl dibenzopyrazine methyl sulfate (PMS) was added to the cells and incubated at 37° C. for 1-2 hours. Metabolism of XTT was quantified by measuring the absorbance at 450 nm on a plate reader.
# A. Phase contrast pictures of VHL-deficient RCC4 and SN12C-VHL shRNA cells and VHL-positive cells RCC4 and SN12C after 20 hrs of 1.25 μM STF-62247. B. Immunostaining for LC3 following STF-62247 treatment at 1.25 μM for 20 hrs with or without 2 mM of 3-MA in RCC4 with and without VHL cells. […] Viability is measured by trypan blue exclusion assay and is represented by the average of three different experiments in duplicate as the percent of treated on untreated cells. […]
Molecule,effect of inhibitor on vacuole formation and LC3-II induced by STF-62247 (LC3),"BiP (Grp78), marker of ER stress (BiP (Grp78))",IC50 (RCC4 cells) [µM],acridine orange staining / amount of AVOs [1],"toxicity, vacuole formation and LC3-lipidated form (autophagy) of analogs (LC3)",Ratio (RCC4/VHL cells),effect of inhibitor on autolysosomal acidification induced by STF-62247 [1],IC50 ratio (wild-type VHL/VHL-deficient cells) (RCC4/VHL cells; structure-activity text on Tables 1 and 2),viability of VHL-deficient cells treated with STF-62247 in presence of inhibitor [2]
tunicamycin [reference compound],no vacuole or LC3 processing was observed,induced BiP (Grp78),–,–,–,–,–,–,–
"Cc1cc(Nc2nc(-c3ccncc3)cs2)ccc1O [Compound 53, 2-Methyl-4-{[4-(4-pyridinyl)-1,3-thiazol-2-yl]amino}phenol]",–,–,70,not influenced,no toxicity or autophagy were observed,2.3,–,–,–
"N#CC(=C(/N)Sc1ccccc1N)/C(C#N)=C(\N)Sc1ccccc1N [Compound U0126, reference compound]",had little effect on autophagy induced by STF-62247,–,–,–,–,–,–,–,–
"COc1cccc(Nc2nc(-c3ccncc3)cs2)c1 [Compound 15, N-(3-Methoxyphenyl)-4-(4-pyridinyl)-1,3-thiazol-2-amine]",–,–,3,consistertly higher in VHL-deficient cells,induced significant vacuole formation and the LC3-lipidated form,17,–,–,–
"C[C@H]1CCC/C=C/[C@@H]2C[C@H](O)C[C@H]2[C@H](O)/C=C/C(=O)O1 [Brefeldin A, reference compound]",abolished the formation of autophagic vacuoles and LC3-II,–,–,–,–,–,resulted in a decrease in autolysosomal acidification,–,–
"Oc1ccc(Nc2nc(-c3ccncc3)cs2)cc1 [Compound 25, 4-{[4-(4-Pyridinyl)-1,3-thiazol-2-yl]amino}phenol]",–,–,5.3,consistertly higher in VHL-deficient cells,induced significant vacuole formation and the LC3-lipidated form,8,–,–,–
"Oc1cccc(Nc2nc(-c3ccncc3)cs2)c1 [Compound 13, 3-{[4-(4-Pyridinyl)-1,3-thiazol-2-yl]amino}phenol]",–,–,28.5,not influenced,no toxicity or autophagy were observed,>3,–,–,–
"Cc1ccc(Nc2nc(-c3ccncc3)cs2)cc1 [Compound 21, N-(4-Methylphenyl)-4-(4-pyridinyl)-1,3-thiazol-2-amine]",–,–,2.5,consistertly higher in VHL-deficient cells,induced significant vacuole formation and the LC3-lipidated form,20,–,high ratio,–
"Cn1cnc(N)c2ncnc1-2 [Compound 3-MA, 3-methyladenine, reference compound]",abrogated,–,–,–,–,–,resulted in a decrease in autolysosomal acidification,–,partially restored
